In paper PMC12454639, “Direct disassembly of α-syn preformed fibrils into α-syn monomers by an all-D-peptide” (NPJ Parkinson's Disease, 2025):
Square brackets hold non-standard residues; d marks the D form. Peptide text beside a SMILES is read from it.

Assays:
small α-syn PFF = test: Western blot of small α-syn PFF; format: biochemical; settings: 200 nM PFF with 250, 500, 750, 1000 nM SVD-1a, 72 h, 37 °C; antibody Syn211
Procedure: Samples of 200 nM small α-syn PFF or α-syn monomer were incubated with 0, 250, 500, 750 and 1000 nM SVD-1a for 72 h at 37 °C in PBS pH 7.4 with 0.05% sodium azide. Samples were then resolved via SDS–PAGE on 12% TGX gels (Bio-Rad, Hercules, USA) using the Mini-PROTEAN Tetra Cell (Bio-Rad, Hercules, USA). Proteins were transferred to a PVDF membrane (0.2 µm pore size) (Trans-Blot Turbo Mini PVDF Transfer Pack, Bio-Rad, Hercules, USA) at 25 V, 1.3 A for 7 min. Blocking of the membrane was carried out with 2% nonfat dried milk powder in TBS + 0.05% Tween 20 for 1 h at room temperature. Anti-α-synuclein antibody Syn211 (RRID:AB_628318, Santa Cruz Biotechnology, Dallas, TX, USA) was used as primary antibody at a concentration of 1 µg/ml in TBS-T for 1 h at RT. As a secondary antibody, an HRP-coupled goat anti-mouse IgG (RRID:AB_228307, Thermo Fisher Scientific, Waltham, MA, USA) was used at 0.2 µg/ml in TBS-T for 1 h at RT. […]
Supplementary Figure 11: Western blot of small α-syn PFF samples incubated with SVD-1a. […] A PFF and monomer sample that were incubated without SVD-1a served as controls. α-Syn was detected with Syn211. A prominent monomer band was present between the 15 kDa- and 20 kDa marker bands, detected with shorter exposure time (left). […] In the upper part of the blot, above the marker range, PFFs were detected using longer exposure time due to weaker signal (right).

[1] = tested on: 15N-labeled full-length acetyl-α-syn; test: 1H-15N HSQC NMR; format: binding
Procedure: Samples were prepared at final concentrations of 25 µM ^15N-labeled full-length acetyl-α-syn in the absence (reference) and presence of an equimolar amount of SVD-1a (not isotopically labeled, thus NMR-invisible) in PBS buffer, pH 7.4, with an addition of 5% D2O for internal reference. 2D 1H-15N HSQC spectra were recorded back-to-back, on a Bruker AVANCE NEO spectrometer (Bruker, USA) operating at 1200 MHz proton Larmor frequency. The experimental temperature was 10 °C. Spectral dimensions were 16.02 ppm (^1H) x 30 ppm (^15N), with 2048 points in the ^1H dimension and 256 increments in the ^15N dimension, resulting in an acquisition time of 53 ms for the ^1H dimension and 35 ms for the ^15N dimension. For each increment, 32 scans were recorded, with a recovery delay of 1 s between scans, resulting in an overall experimental time of […] per spectrum.
NMR data sets were processed using the Bruker TopSpin software (version 4.1.1) and visualized using CcpNmr Analysis (v2.4.2)[59]. For the assessment of chemical shift changes of α-syn resonances in the presence of SVD-1a relative to the reference spectrum (without SVD-1a), peak positions were extracted using the CcpNmr Analysis software. From the residue-specific chemical shift changes in the ^1H and ^15N dimensions, an absolute chemical shift change, Δδ, was calculated using the formula Δδ = 0.5δH2+0.14δN2 [60]. […]

For `CC[C@@H](C)[C@@H](NC(=O)[C@@H](Cc1c[nH]cn1)NC(=O)[C@@H](CCC(=O)O)NC(=O)[C@@H](CCC(N)=O)NC(=O)[C@@H](Cc1c[nH]c2ccccc12)NC(=O)[C@@H](Cc1ccc(O)cc1)NC(=O)[C@H](NC(=O)[C@@H](CCC(=O)O)NC(=O)[C@@H](Cc1c[nH]cn1)NC(=O)[C@H](NC(=O)[C@H]1CCCN1C(=O)[C@@H](CC(C)C)NC(=O)[C@H](N)CCCNC(=N)N)[C@H](C)O)[C@H](C)O)C(=O)N[C@H](Cc1c[nH]c2ccccc12)C(=O)N[C@H](Cc1c[nH]cn1)C(=O)N[C@H](C)C(=O)N[C@H](CCCNC(=N)N)C(=O)N[C@H](CCCNC(=N)N)C(=O)N[C@H](CCCNC(=N)N)C(=O)N[C@H](CCCNC(=N)N)C(=O)N[C@H](CCCNC(=N)N)C(N)=O` [SVD-1a] (H-[dR][dL][dP][dT][dH][dE][dT][dY][dW][dQ][dE][dH][dI][dW][dH][dA][dR][dR][dR][dR][dR]-NH2), the “intensity of higher MW α-syn bands” value (small α-syn PFF) was “progressively reduced in presence of higher SVD-1a concentrations”, the “NMR chemical shift changes of α-syn” value ([1]; 25 µM 15N-α-syn + 25 µM SVD-1a, PBS pH 7.4, 10 °C, 1200 MHz) was “the chemical shift changes are very small, with most residues showing significant chemical shift changes located in the C-terminal region” and the “precipitation of α-syn in NMR sample” value ([1]; 25 µM α-syn with 25 µM SVD-1a, 4.8 h at 10 °C) was “did not yield any signs of signal loss due to precipitation”.
